# pIC50: −log10 of the molar value.
# Target: ATP-dependent translocase ABCB1 (Homo sapiens, UniProt P08183)
# Test: Inhibition of human MDR1 expressed in MDCK cells assessed as calcein AM accumulation after 30 mins by fluorescence assay
# Type: cell-based
# Settings: read-out: IC50
# Chain of ATP-dependent translocase ABCB1 (P08183 whole entry): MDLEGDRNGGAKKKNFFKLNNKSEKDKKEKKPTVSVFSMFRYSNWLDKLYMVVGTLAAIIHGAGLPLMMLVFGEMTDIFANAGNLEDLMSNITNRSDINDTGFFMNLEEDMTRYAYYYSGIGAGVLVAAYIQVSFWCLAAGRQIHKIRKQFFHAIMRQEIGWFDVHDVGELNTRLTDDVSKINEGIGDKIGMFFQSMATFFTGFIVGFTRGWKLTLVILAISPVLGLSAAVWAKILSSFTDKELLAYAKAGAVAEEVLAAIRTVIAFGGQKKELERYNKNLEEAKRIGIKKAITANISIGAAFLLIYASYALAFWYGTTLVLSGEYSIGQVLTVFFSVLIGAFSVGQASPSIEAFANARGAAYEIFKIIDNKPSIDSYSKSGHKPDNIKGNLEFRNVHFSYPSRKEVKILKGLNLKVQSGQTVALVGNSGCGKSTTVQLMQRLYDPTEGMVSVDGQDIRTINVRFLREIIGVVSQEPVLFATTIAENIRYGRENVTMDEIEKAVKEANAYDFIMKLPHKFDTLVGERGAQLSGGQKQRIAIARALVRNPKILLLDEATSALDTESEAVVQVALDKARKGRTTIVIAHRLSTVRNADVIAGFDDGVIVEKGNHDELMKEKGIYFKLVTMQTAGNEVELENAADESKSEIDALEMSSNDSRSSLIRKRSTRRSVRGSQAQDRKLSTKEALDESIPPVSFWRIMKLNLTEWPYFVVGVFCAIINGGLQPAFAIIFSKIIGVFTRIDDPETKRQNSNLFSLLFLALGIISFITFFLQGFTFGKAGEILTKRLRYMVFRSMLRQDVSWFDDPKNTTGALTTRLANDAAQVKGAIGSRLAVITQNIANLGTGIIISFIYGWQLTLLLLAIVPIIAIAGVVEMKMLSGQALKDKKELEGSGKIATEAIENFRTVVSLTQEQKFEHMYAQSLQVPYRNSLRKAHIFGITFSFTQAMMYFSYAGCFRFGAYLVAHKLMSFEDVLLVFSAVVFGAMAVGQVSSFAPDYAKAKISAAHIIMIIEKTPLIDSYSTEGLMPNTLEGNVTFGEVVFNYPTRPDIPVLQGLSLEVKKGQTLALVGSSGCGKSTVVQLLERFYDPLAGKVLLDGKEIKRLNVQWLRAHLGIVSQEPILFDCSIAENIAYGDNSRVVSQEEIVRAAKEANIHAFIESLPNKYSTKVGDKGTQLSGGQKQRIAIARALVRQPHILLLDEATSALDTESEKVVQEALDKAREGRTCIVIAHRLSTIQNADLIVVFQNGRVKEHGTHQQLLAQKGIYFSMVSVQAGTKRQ
row,pIC50,SMILES
1,< 4.00,COc1cc(C(=O)Nc2ccc(-c3ccccc3)cc2[N+](=O)[O-])cc(OC)c1OC
2,5.72,COc1cc(C(=O)Nc2ccc(-c3ccccc3)cc2NC(C)=O)cc(OC)c1OC
3,< 4.00,COc1cc(C(=O)Nc2ccc(Br)cc2[N+](=O)[O-])cc(OC)c1OC
4,< 4.00,COc1ccc(NC(=O)c2cc(OC)c(OC)c(OC)c2)c([N+](=O)[O-])c1
5,6.24,COc1cc(C(=O)Nc2cc(-c3ccccc3)ccc2[N+](=O)[O-])cc(OC)c1OC
6,6.70,COc1cc(C(=O)Nc2ccc(-c3ccc4c(c3)OCO4)cc2[N+](=O)[O-])cc(OC)c1OC
7,4.47,COc1cc(C(=O)Nc2ccc(-c3ccc[n+](C)c3)cc2[N+](=O)[O-])cc(OC)c1OC
8,5.82,COc1cc(CNc2ccc(-c3ccccc3)cc2[N+](=O)[O-])cc(OC)c1OC
9,4.40,COc1cc(C(=O)Nc2cc(-c3ccccc3)ccc2[N+](=O)[O-])cc(O)c1O
10,4.17,COc1cc(C(=O)Nc2ccc(-c3ccccc3)cc2[N+](=O)[O-])cc(O)c1O
11,< 4.00,COc1cc(C(=O)Nc2ccc(-c3ccccc3)cc2N)cc(O)c1O
12,< 4.00,COc1cc(C(=O)Nc2ccc(-c3ccccc3)cc2NC(C)=O)cc(O)c1O
13,5.46,COc1ccc(C(=O)Nc2ccc(-c3ccccc3)cc2[N+](=O)[O-])cc1O
14,< 4.00,COc1cc(NC(=O)c2ccc(-c3ccccc3)cc2[N+](=O)[O-])cc(O)c1O
15,< 4.00,COC1=CC(C(=O)Nc2ccc(-c3ccccc3)cc2[N+](=O)[O-])=CC(=O)C1=O

# The next lines start with the compound.
row,SMILES,pIC50
1,COc1cc(C(=O)Nc2ccc(Br)cc2)cc(OC)c1OC,4.70
2,COc1cc(C(=O)Nc2ccc(-c3ccccc3)cc2)cc(OC)c1OC,< 4.00
3,COc1cc(C(=O)Nc2ccc(-c3ccccc3)cc2N)cc(OC)c1OC,5.14
4,COc1cc(C(=O)Nc2ccc(-c3ccccc3)cc2F)cc(OC)c1OC,5.85
5,COc1cc(C(=O)Nc2ccc(-c3cccs3)cc2[N+](=O)[O-])cc(OC)c1OC,4.76
6,COc1cc(C(=O)Nc2ccc(-c3cccnc3)cc2[N+](=O)[O-])cc(OC)c1OC,5.17
7,COc1cc(C(=O)Nc2ccc(-c3cccc(C(C)=O)c3)cc2[N+](=O)[O-])cc(OC)c1OC,6.22
8,COc1cc(C(=O)Nc2ccc(-c3cc(OC)c(OC)c(OC)c3)cc2[N+](=O)[O-])cc(OC)c1OC,4.61
9,COc1cc(C(=O)Nc2ccc(-c3cccc([N+](=O)[O-])c3)cc2[N+](=O)[O-])cc(OC)c1OC,6.40
10,COc1ccc(C(=O)Nc2ccc(-c3ccccc3)cc2[N+](=O)[O-])cc1OC,5.89
11,COc1cc(OC)cc(C(=O)Nc2ccc(-c3ccccc3)cc2[N+](=O)[O-])c1,5.18
12,COc1cc(NC(=O)c2ccc(-c3ccccc3)cc2[N+](=O)[O-])cc(OC)c1OC,5.70
13,O=C(Nc1ccc(Br)cc1[N+](=O)[O-])c1cc(O)c(O)c(O)c1,< 4.00
14,O=C(Nc1ccc(-c2ccccc2)cc1[N+](=O)[O-])c1cc(O)c(O)c(O)c1,< 4.00
15,O=C(Nc1ccc(-c2ccccc2)cc1[N+](=O)[O-])c1cc(O)cc(O)c1,4.14
16,COc1cc(C(=O)Nc2ccc(Br)cc2[N+](=O)[O-])cc(O)c1O,4.42
17,COc1ccc(NC(=O)c2cc(O)c(O)c(OC)c2)c([N+](=O)[O-])c1,4.19
18,COc1cc(C(=O)Nc2ccc(-c3cc(F)cc(F)c3)cc2[N+](=O)[O-])cc(O)c1O,4.77
19,COc1cc(C(=O)Nc2ccc(-c3ccc(O)c(O)c3)cc2[N+](=O)[O-])cc(O)c1O,< 4.00
20,COc1cc(C(=O)Nc2ccc(-c3cccc(C(C)=O)c3)cc2[N+](=O)[O-])cc(O)c1O,5.04
21,COc1cc(C(=O)Nc2ccc(-c3cc(O)c(O)c(OC)c3)cc2[N+](=O)[O-])cc(O)c1O,5.51
22,COc1cc(C(=O)Nc2ccc(-c3cccc([N+](=O)[O-])c3)cc2)cc(O)c1O,4.49
23,COc1cc(C(=O)Nc2ccc(-c3ccccc3)cc2)cc(O)c1O,< 4.00
24,COc1cc(C(=O)Nc2ccc(-c3ccccc3)cc2F)cc(O)c1O,4.85
25,COc1cc(CNc2ccc(-c3ccccc3)cc2[N+](=O)[O-])cc(O)c1O,4.14
26,COc1ccc(CCN(C)CCCC(C#N)(c2ccc(O)c(O)c2)C(C)C)cc1OC (racemic),4.50

# Same assay, conditions: read-out: pIC50 (converted)
row,IC50 [µM],SMILES
1,0.57,COc1cc(C(=O)Nc2cc(-c3ccccc3)ccc2[N+](=O)[O-])cc(OC)c1OC
2,0.2,COc1cc(C(=O)Nc2ccc(-c3ccc4c(c3)OCO4)cc2[N+](=O)[O-])cc(OC)c1OC

# More lines, now with the values behind:
row,SMILES,IC50 [µM]
1,COc1cc(C(=O)Nc2ccc(-c3cccc(C(C)=O)c3)cc2[N+](=O)[O-])cc(OC)c1OC,0.6
2,COc1cc(C(=O)Nc2ccc(-c3cc(OC)c(OC)c(OC)c3)cc2[N+](=O)[O-])cc(OC)c1OC,24.3
3,COc1cc(C(=O)Nc2ccc(-c3cccc([N+](=O)[O-])c3)cc2[N+](=O)[O-])cc(OC)c1OC,> 1

# System: not listed separately
# Test: Chemical stability of the compound at 1 to 100 uM after 1 hr by ESI-MS analysis
# Type: physicochemical
# Settings: not given
row,Stability,SMILES
1,Stable,COc1cc(C(=O)Nc2ccc(-c3ccccc3)cc2[N+](=O)[O-])cc(OC)c1OC
2,Stable,O=C(Nc1ccc(-c2ccccc2)cc1[N+](=O)[O-])c1cc(O)c(O)c(O)c1
3,Stable,COc1cc(C(=O)Nc2ccc(-c3ccccc3)cc2[N+](=O)[O-])cc(O)c1O

# Source: ChEMBL document CHEMBL1944510, “Potent galloyl-based selective modulators targeting multidrug resistance associated protein 1 and P-glycoprotein” (J Med Chem, 2012)
